Converted amounts (≈) assume the structure as drawn. Where two headings read alike, the source gives them in different places.
Experiments:
[1] = tested on: P. mirabilis A-9900; assay: Minimum Inhibitory Concentration, tube dilution; format: cell-based; conditions: Proteus mirabilis, A9900, overnight 37° C.; table 6
[2] = tested on: K. pneumoniae A20468; assay: Minimum Inhibitory Concentration, tube dilution; format: cell-based; conditions: Klebsiella pneumoniae, A20468, overnight 37° C., table 6
[3] = tested on: E. coli A20341-1; assay: Minimum Inhibitory Concentration, tube dilution; format: cell-based; conditions: Escherichia coli, A203411, overnight 37° C.; table 6
[4] = tested on: S. pyogenes A-9604; assay: Minimum Inhibitory Concentration, tube dilution; format: cell-based; conditions: Streptococcus pyogenes, A9604, overnight 37° C.; table 6
[5] = tested on: S. faecalis A20688; assay: Minimum Inhibitory Concentration, tube dilution; format: cell-based; conditions: Enterococcus faecalis, A20688, overnight 37° C., table 6
[6] = tested on: S. pneumoniae A-9585; assay: Minimum Inhibitory Concentration, tube dilution; format: cell-based; conditions: Streptococcus pneumoniae, A9585, overnight 37° C.; table 6
[7] = tested on: P. rettgeri A22424; assay: Minimum Inhibitory Concentration, tube dilution; format: cell-based; conditions: Providencia rettgeri, overnight 37° C.
[8] = tested on: K. pneumoniae A-9664; assay: Minimum Inhibitory Concentration, tube dilution; format: cell-based; conditions: Klebsiella pneumoniae, A9664, overnight 37° C.; table 6
[9] = tested on: S. aureus A15097 (Meth-res.); assay: Minimum Inhibitory Concentration, tube dilution; format: cell-based; conditions: Staphylococcus aureus, table 6
[10] = tested on: E. cloacae A9659; assay: Minimum Inhibitory Concentration, tube dilution; format: cell-based; conditions: Enterobacter cloacae, A9659, overnight 37° C., table 6
[11] = tested on: P. aeruginosa A-9843A; assay: Minimum Inhibitory Concentration, tube dilution; format: cell-based; conditions: Pseudomonas aeruginosa, A9843A, overnight 37° C.; table 6; read-out: MIC
[12] = tested on: S. aureus A-9537; assay: Minimum Inhibitory Concentration, tube dilution; format: cell-based; conditions: table 6
[13] = tested on: P. aeruginosa A21213; assay: Minimum Inhibitory Concentration, tube dilution; format: cell-based; conditions: Pseudomonas aeruginosa, A21213, overnight 37° C.; table 6; read-out: MIC
[14] = tested on: P. aeruginosa A9843A; assay: animal or person; format: in vivo, mice; conditions: Pseudomonas aeruginosa, in Mus musculus, im, read-out: PD50 /treatment
Source text: The PD50 (dose in mg/kg required to give protection to 50% of the infected mice) is indicated.

[15] = tested on: P. vulgaris A21559; assay: Minimum Inhibitory Concentration, tube dilution; format: cell-based; conditions: Proteus vulgaris, A21559, overnight 37° C.; table 6
[16] = tested on: B. fragilis A22696; assay: Minimum Inhibitory Concentration, tube dilution; format: cell-based; conditions: Bacteroides fragilis, overnight 37° C., table 6, read-out: MIC
[17] = tested on: B. fragilis A22862; assay: Minimum Inhibitory Concentration, tube dilution; format: cell-based; conditions: Bacteroides fragilis, overnight 37° C., table 6
[18] = tested on: S. marcescens A20019; assay: Minimum Inhibitory Concentration, tube dilution; format: cell-based; conditions: Serratia marcescens, A20019, overnight 37° C.; table 6
[19] = Half-life in phosphate buffer pH 7.4; format: physicochemical; conditions: phosphate buffer, pH 7.4, τ1/2 (half-life)
Experimental: To a solution of p-nitrobenzyl 3-[2-(1-pyridinium)ethylthio)]-6α[1-(R)-hydroxyethyl]-7-oxo-1-azabicyclo(3.2.0)hept-2-ene-carboxylate diphenylphosphate (0.16 g, 0.22 mmol) in wet tetrahydrofuran (10mL) was added ether (10mL), potassium phosphate monobasic-sodium hydroxide buffer pH 7.4 (16 mL, 0.05 M) and 10% palladium on charcoal (0.16 g). The resulting mixture was hydrogenated under 40 psi for 1 h at 25° C. The two phases were separated and the organic phase was extracted with water (2×3 mL). The aqeuous solutions were combined, washed with ether (2×10 ml) and poured on top of a column (1.5×6.2 cm) pf μ-bondapak C-18 after the traces of organic solvents have been removed under vacuum. Elution of the column with water gave after lyophylization of the appropriate fractions a yellowish powder 0.062 g (84%), ir (KBr) .nu.max : 3700-3000 (OH), 1755 (C--O of β-lactam), 1630 (pyridinium), 1590 cm^-1 (carboxylate), ^1 Hmr (D2 O): 1.22 (3H, d, J=6.4 Hz, CH3 CHOH), 2.92 (d, J=9.1 Hz, H-4), 2.97 (d, J=9.1 Hz, H-4), 3.20 (dd, J=2.5 Hz, J=6.1 Hz, H-6), 3.44 (t, J=6.0 Hz, CH2 S), 3.93 (dd, J=9.1 Hz, J=2.5 Hz, H-5), 4.82 (t, J=6.0 Hz, CH2 N^+), 8.04 (m, Hm of pyridinium), 8.5 (m, Hp of pyridinium), 8.82 (dd, J=3.2. Hz, J=1.1 Hz, Ho of pyridinium), uv (H2 O) λ max : 259 (ε5800), 296 (ε7030) mμ, .tau.1/2 =13.5 h (measured at a concentration of 10^-4 M in phosphate buffer pH 7.4 at 36.8° C.).

[20] = tested on: S. aureus A-9606 (Pen-res.); assay: Minimum Inhibitory Concentration, tube dilution; format: cell-based; conditions: Staphylococcus aureus, Pen-res; table 6
[21] = tested on: P. aeruginosa A9843A; assay: animal or person; format: in vivo, mice; conditions: Pseudomonas aeruginosa, in Mus musculus, im, 3.5 h, read-out: PD50 /treatment
Experimental: (§1) Drugs were administered i.m. 0 to 2 hours post-infection (A9606) or 1 and 3.5 hours post-infection for the others.

[22] = Pharmacokinetic parameters in the mouse after intramuscular dose; format: in vivo, mice; conditions: im, 20 mg/kg
Source text: Also shown is the urinary recovery in the mice.
Compounds were solubilized in 0.1 M phosphate buffer pH 7.

[23] = tested on: S. aureus A9606; assay: Protective effect, intramuscular treatment of infected mice (table 7); format: in vivo; conditions: Staphylococcus aureus, A9606, im; i.m. 0 to 2 hours post-infection; ~1×10^9 organisms i.p.; read-out: PD50 /treatment
Experimental: as §1

[24] = tested on: P. mirabilis A9900; assay: as above; format: in vivo; conditions: Proteus mirabilis, A9900, im; i.m. 1 and 3.5 hours post-infection; ~1×10^7 organisms i.p.; read-out: PD50 /treatment
Experimental: as §1

[25] = tested on: H. influenzae A-9833; assay: Minimum Inhibitory Concentration, tube dilution; format: cell-based; conditions: Haemophilus influenzae, A9833; overnight 37° C.; table 6; read-out: MIC
[26] = tested on: M. morganii A15153; assay: Minimum Inhibitory Concentration, tube dilution; format: cell-based; conditions: Morganella morganii, A15153, overnight 37° C.; table 6
[27] = tested on: H. influenzae A21518; assay: Minimum Inhibitory Concentration, tube dilution; format: cell-based; conditions: Haemophilus influenzae, overnight 37° C., table 6
[28] = tested on: E. coli A15119; assay: Minimum Inhibitory Concentration, tube dilution; format: cell-based; conditions: Escherichia coli, A15119, overnight 37° C.; table 6
[29] = Staphylococcus aureus, A9537, 50% serum, read-out: MIC
[30] = Staphylococcus aureus, A9537, overnight 37° C., read-out: MIC

C[C@@H](O)[C@H]1C(=O)N2C(C(=O)[O-])=C(SC3CCCCC3[n+]3ccccc3)C[C@H]12 (single isomer, unassigned) [Ex. 16 (cmp. "B"), (5R,6S) 3-[2-[(R or S)-(1-pyridinium)]-1-(R or S)-cyclohexylthio]-6-[1-(R)-hydroxyethyl]-7-oxo-1-azabicyclo(3.2.0)hept-2-ene-2-carboxylate]
MIC [1]: 0.13 µg/mL (≈ 0.335 µM) | MIC ([2]; read-out: MIC): 0.5 µg/mL (≈ 1.29 µM) | MIC [3]: 0.06 µg/mL (≈ 0.154 µM) | MIC [4]: 0.004 µg/mL (≈ 0.0103 µM) | MIC ([5]; read-out: MIC): 8 µg/mL (≈ 20.6 µM) | MIC [6]: 0.002 µg/mL (≈ 0.00515 µM) | MIC ([7]; table 6, read-out: MIC): 4 µg/mL (≈ 10.3 µM) | MIC [8]: 0.13 µg/mL (≈ 0.335 µM) | MIC [9]: 0.5 µg/mL (≈ 1.29 µM) | MIC ([10]; read-out: MIC): 0.5 µg/mL (≈ 1.29 µM) | MIC [11]: 32 µg/mL (≈ 82.4 µM) | MIC ([12]; overnight 37° C.): 0.013 µg/mL (≈ 0.0335 µM)

CC(C[n+]1ccccc1)SC1=C(C(=O)[O-])N2C(=O)[C@H]([C@@H](C)O)[C@H]2C1 (single isomer, unassigned) [Ex. 15 (cmp. "A")]
MIC [13]: 1 µg/mL (≈ 2.87 µM) | MIC [3]: 0.03 µg/mL (≈ 0.0861 µM) | ED50 [14]: 3.1 mg/kg | MIC [15]: 0.03 µg/mL (≈ 0.0861 µM) | MIC [16]: 0.25 µg/mL (≈ 0.718 µM) | MIC [17]: 0.13 µg/mL (≈ 0.373 µM) | MIC [18]: 0.06 µg/mL (≈ 0.172 µM) | MIC [8]: 0.06 µg/mL (≈ 0.172 µM)

Cc1cc[n+](CCSC2=C(C(=O)[O-])N3C(=O)[C@H]([C@@H](C)O)[C@H]3C2)cc1 [Example 8, 3-[2-(1-(4-methylpyridinium))ethylthio]-6α-[1(R)-hydroxyethyl]-7-oxo-1-azabicyclo(3.2.0)hept-2-ene-2-carboxylate]
half-life at 100 µM [19]: 12.8 h | MIC [20]: 0.06 µg/mL (≈ 0.172 µM) | ED50 [21]: 0.9 mg/kg | AUC ([22]; blood): 4600 ng·h/mL | Cmax ([22]; blood): 10600 ng/mL | half-life ([22]; blood, read-out: T1/2 (blood)): 8.2 min | dose excreted ([22]; urine, read-out: Urine Recovery): 47 ± 7% | MIC [4]: 0.03 µg/mL (≈ 0.0861 µM) | MIC [6]: 0.03 µg/mL (≈ 0.0861 µM) | ED50 [23]: 0.8 mg/kg | ED50 [24]: ~38 mg/kg | MIC [25]: > 32 µg/mL | MIC [15]: 0.06 µg/mL (≈ 0.172 µM) | MIC [17]: 0.06 µg/mL (≈ 0.172 µM) | MIC [9]: > 63 µg/mL | MIC [11]: 8 µg/mL (≈ 23 µM) | MIC [12, 29]: 0.06 µg/mL (≈ 0.172 µM) | MIC [12, 30]: 0.03 µg/mL (≈ 0.0861 µM) | MIC [26]: 0.03 µg/mL (≈ 0.0861 µM) | MIC [27]: > 32 µg/mL

CSc1cc[n+](CCSC2=C(C(=O)[O-])N3C(=O)[C@H]([C@@H](C)O)[C@H]3C2)cc1 [Example 9, (5R) 3-[2-(4-methylthiopyridinio)ethylthio]-(6S)-[(1R)-hydroxyethyl]-7-oxo-1-azabicyclo[3.2.0]hept-2-ene-2-carboxylate]
MIC [1]: 0.06 µg/mL (≈ 0.158 µM) | MIC [20]: 0.008 µg/mL (≈ 0.021 µM) | MIC [2]: 0.25 µg/mL (≈ 0.657 µM) | MIC [13]: 2 µg/mL (≈ 5.26 µM) | MIC [3]: 0.03 µg/mL (≈ 0.0788 µM) | MIC [4]: 0.001 µg/mL (≈ 0.00263 µM) | ED50 [14]: 3.1 mg/kg | MIC [5]: 0.25 µg/mL (≈ 0.657 µM) | MIC [6]: 0.002 µg/mL (≈ 0.00526 µM) | MIC [15]: 0.016 µg/mL (≈ 0.0421 µM) | MIC [28]: 0.03 µg/mL (≈ 0.0788 µM) | MIC [17]: 0.06 µg/mL (≈ 0.158 µM) | MIC [18]: 0.06 µg/mL (≈ 0.158 µM) | MIC ([7]; table 6): 0.25 µg/mL (≈ 0.657 µM) | MIC [10]: 0.25 µg/mL (≈ 0.657 µM) | MIC [11]: 4 µg/mL (≈ 10.5 µM) | MIC [12, 29]: 0.016 µg/mL (≈ 0.0421 µM) | MIC [12, 30]: 0.008 µg/mL (≈ 0.021 µM)
